Results published in US12660819B2, “Herbicidal derivatives” (SYNGENTA CROP PROTECTION AG, priority 2020, dated 2026).

Assays:
Format in all cases: in vivo
[1] = test system: Amaranthus palmeri (AMAPA); test: Post-emergence Test (glasshouse, percentage damage to the plant); conditions: 1000 g/ha unless otherwise stated, evaluated after 13 days; for AMAPA, percentage damage caused to the plant (five-point scale): post-emergence
Procedure, shortened: (§1)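 After sowing in standard soil, pots were kept at 24/16 °C (day/night), 14 h light and 65% humidity. They were sprayed at 1000 g/ha unless otherwise stated, watered twice daily, and assessed for percentage damage at 13 days on a 1–5 scale.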

[2] = test system: Amaranthus retoflexus (AMARE); test: as above; conditions: 1000 g/ha unless otherwise stated, evaluated after 13 days; for AMARE, percentage damage caused to the plant (five-point scale): post-emergence
Procedure, shortened: as §1

[3] = test system: Ipomoea hederacea (IPOHE); test: as above; conditions: 1000 g/ha unless otherwise stated, evaluated after 13 days; for IPOHE, percentage damage caused to the plant (five-point scale): post-emergence
Procedure, shortened: (§2)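 Damage was rated 13 days after treatment and expressed on a five-point scale: 5=81-100%, 4=61-80%, 3=41-60%, 2=21-40%, 1=0-20%. Spray was applied at 1000 g/ha unless otherwise stated, from acetone/water (50:50) with 0.5% Tween 20, to sown pots.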

Setaria faberi (SETFA) [4] = test: as above; conditions: 1000 g/ha unless otherwise stated, evaluated after 13 days; for SETFA, percentage damage caused to the plant (five-point scale): post-emergence
Procedure, shortened: as §2

Zea mays (ZEAMX) [5] = test: as above; conditions: 1000 g/ha unless otherwise stated, evaluated after 13 days; for ZEAMX, percentage damage caused to the plant (five-point scale): post-emergence
Procedure, shortened: as §2

[6] = test system: Amaranthus retoflexus (AMARE); test: Pre-emergence Test (glasshouse, percentage damage to the plant); conditions: 1000 g/ha unless otherwise stated; for percentage damage to the plant, AMARE (five-point scale): Amaranthus retoflexus
Setaria faberi (SETFA) [7] = test: as above; conditions: 1000 g/ha unless otherwise stated; for percentage damage to the plant, SETFA (five-point scale): Setaria faberi
[8] = test system: Echinochloa crus-galli (ECHCG); test: as above; conditions: 1000 g/ha unless otherwise stated; for percentage damage to the plant, ECHCG (five-point scale): Echinochloa crus-galli
[9] = test system: Ipomoea hederacea (IPOHE); test: as above; conditions: 1000 g/ha unless otherwise stated; for percentage damage to the plant, IPOHE (five-point scale): Ipomoea hederacea
Zea mays (ZEAMX) [10] = test: as above; conditions: 1000 g/ha unless otherwise stated; for percentage damage to the plant, ZEAMX (five-point scale): Zea mays
[11] = test system: Amaranthus palmeri (AMAPA); test: as above; conditions: 1000 g/ha unless otherwise stated; for percentage damage to the plant, AMAPA (five-point scale): Amaranthus palmeri

SMILES	AMAPA, percentage damage caused to the plant (five-point scale) [1]	AMARE, percentage damage caused to the plant (five-point scale) [2]	IPOHE, percentage damage caused to the plant (five-point scale) [3]	SETFA, percentage damage caused to the plant (five-point scale) (Setaria faberi (SETFA) [4])	ZEAMX, percentage damage caused to the plant (five-point scale) (Zea mays (ZEAMX) [5])	percentage damage to the plant, AMARE (five-point scale) [6]	percentage damage to the plant, SETFA (five-point scale) (Setaria faberi (SETFA) [7])	percentage damage to the plant, ECHCG (five-point scale) [8]	percentage damage to the plant, IPOHE (five-point scale) [9]	percentage damage to the plant, ZEAMX (five-point scale) (Zea mays (ZEAMX) [10])	percentage damage to the plant, AMAPA (five-point scale) [11]	further results
CCn1c(C)c(-c2cccc(C)c2F)c(=O)c(C(=O)O)c1-c1ccc(Cl)c(Cl)c1 [Compound 228, 2-(3,4-dichlorophenyl)-1-ethyl-5-(2-fluoro-3-methyl-phenyl)-6-methyl-4-oxo-pyridine-3-carboxylic acid]	5 (5=81-100%)	4 (4=61-80%)	3 (3=41-60%)	3 (3=41-60%)	2 (2=21-40%)	2 (2=21-40%)	5 (5=81-100%)	5 (5=81-100%)	3 (3=41-60%)	2 (2=21-40%)	4 (4=61-80%)	
CCn1c(C)c(-c2ccc(S(C)(=O)=O)cc2F)c(=O)c(C(=O)O)c1-c1ccc(Cl)c(Cl)c1 [Compound 239, 2-(3,4-dichlorophenyl)-1-ethyl-5-(2-fluoro-4-methylsulfonyl-phenyl)-6-methyl-4-oxo-pyridine-3-carboxylic acid]	3 (3=41-60%)	4 (4=61-80%)	2 (2=21-40%)	4 (4=61-80%)	2 (2=21-40%)	1 (1=0-20%)	5 (5=81-100%)	5 (5=81-100%)	1 (1=0-20%)	0	1 (1=0-20%)	
CCN(CC)S(=O)(=O)c1ccc(-c2c(C)n(CC)c(-c3ccc(Cl)c(Cl)c3)c(C(=O)O)c2=O)cc1 [Compound 237, 2-(3,4-dichlorophenyl)-5-[4-(diethylsulfamoyl)phenyl]-1-ethyl-6-methyl-4-oxo-pyridine-3-carboxylic acid]	4 (4=61-80%)	1 (1=0-20%)	2 (2=21-40%)	3 (3=41-60%)	1 (1=0-20%)	0	1 (1=0-20%)	2 (2=21-40%)	0	0	1 (1=0-20%)	
CCn1c(C)c(-c2cc(F)ccc2C)c(=O)c(C(=O)O)c1-c1ccc(Cl)c(Cl)c1 [Compound 222, 2-(3,4-dichlorophenyl)-1-ethyl-5-(5-fluoro-2-methyl-phenyl)-6-methyl-4-oxo-pyridine-3-carboxylic acid]	5 (5=81-100%)	3 (3=41-60%)	3 (3=41-60%)	3 (3=41-60%)	1 (1=0-20%)	1 (1=0-20%)	1 (1=0-20%)	1 (1=0-20%)	1 (1=0-20%)	1 (1=0-20%)	1 (1=0-20%)	
CCn1c(C)c(-c2cccc(Oc3ccccc3)c2)c(=O)c(C(=O)O)c1-c1ccc(Cl)c(Cl)c1 [Compound 238, 2-(3,4-dichlorophenyl)-1-ethyl-6-methyl-4-oxo-5-(3-phenoxyphenyl) pyridine-3-carboxylic acid]	4 (4=61-80%)	3 (3=41-60%)	1 (1=0-20%)	1 (1=0-20%)	1 (1=0-20%)	0	0	0	0	0	0	
CCn1c(C)c(-c2cc(C)nn2C)c(=O)c(C(=O)O)c1-c1ccc(Cl)c(Cl)c1 [Compound 240, 2-(3,4-dichlorophenyl)-5-(2,5-dimethylpyrazol-3-yl)-1-ethyl-6-methyl-4-oxo-pyridine-3-carboxylic acid]	4 (4=61-80%)	3 (3=41-60%)	4 (4=61-80%)	4 (4=61-80%)	1 (1=0-20%)	0	5 (5=81-100%)	3 (3=41-60%)	1 (1=0-20%)	0	0	
CCn1c(C)c(-c2ccc(Cl)cc2SC)c(=O)c(C(=O)O)c1-c1ccc(Cl)c(Cl)c1 [Compound 158, 5-(4-chloro-2-methylsulfanyl-phenyl)-2-(3,4-dichlorophenyl)-1-ethyl-6-methyl-4-oxo-pyridine-3-carboxylic acid]												Post-emergence Test AMAPA, percentage damage to the plant (five-point scale) ([1]; post-emergence spray): 5 (5=81-100%); Post-emergence Test AMARE, percentage damage to the plant (five-point scale) ([2]; post-emergence spray): 4 (4=61-80%); Post-emergence Test IPOHE, percentage damage to the plant (five-point scale) ([3]; post-emergence spray): 2 (2=21-40%); Post-emergence Test SETFA, percentage damage to the plant (five-point scale) (Setaria faberi (SETFA) [4]; post-emergence spray): 1 (1=0-20%); Post-emergence Test ZEAMX, percentage damage to the plant (five-point scale) (Zea mays (ZEAMX) [5]; post-emergence spray): 1 (1=0-20%); percentage damage to the plant, AMARE ([6]; five-point scale): 0; percentage damage to the plant, SETFA (Setaria faberi (SETFA) [7]; five-point scale): 0; percentage damage to the plant, ECHCG ([8]; five-point scale): 0; percentage damage to the plant, IPOHE ([9]; five-point scale): 0; percentage damage to the plant, ZEAMX (Zea mays (ZEAMX) [10]; five-point scale): 0; percentage damage to the plant, AMAPA ([11]; five-point scale): 3 (3=41-60%)
CCn1c(C)c(-c2cc(Cl)ccc2F)c(=O)c(C(=O)O)c1-c1ccc(Cl)c(Cl)c1 [Compound 229, 5-(5-chloro-2-fluoro-phenyl)-2-(3,4-dichlorophenyl)-1-ethyl-6-methyl-4-oxo-pyridine-3-carboxylic acid]	5 (5=81-100%)	5 (5=81-100%)	3 (3=41-60%)	1 (1=0-20%)	1 (1=0-20%)	4 (4=61-80%)	1 (1=0-20%)	0	1 (1=0-20%)	0	4 (4=61-80%)	
CCn1c(C)c(-c2cc(OC(F)(F)F)ccc2Cl)c(=O)c(C(=O)O)c1-c1ccc(Cl)c(Cl)c1 [Compound 224, 5-[2-chloro-5-(trifluoromethoxy)phenyl]-2-(3,4-dichlorophenyl)-1-ethyl-6-methyl-4-oxo-pyridine-3-carboxylic acid]	5 (5=81-100%)	5 (5=81-100%)	2 (2=21-40%)	5 (5=81-100%)	3 (3=41-60%)	3 (3=41-60%)	5 (5=81-100%)	5 (5=81-100%)	2 (2=21-40%)	2 (2=21-40%)	4 (4=61-80%)	
CCn1c(C)c(-c2cc(C)ccc2F)c(=O)c(C(=O)O)c1-c1ccc(Cl)c(Cl)c1 [Compound 231, 2-(3,4-dichlorophenyl)-1-ethyl-5-(2-fluoro-5-methyl-phenyl)-6-methyl-4-oxo-pyridine-3-carboxylic acid]	5 (5=81-100%)	5 (5=81-100%)	3 (3=41-60%)	3 (3=41-60%)	1 (1=0-20%)	3 (3=41-60%)	4 (4=61-80%)	2 (2=21-40%)	0	0	4 (4=61-80%)	
